Experiments:
Assay type in all cases: toxicity, cell-based
Fibroblast = assay: Incucyte cell viability with human fibroblast; conditions: 10 µM, compound concentration 10 uM
U2OS = assay: Incucyte cell viability with U2OS; conditions: human, 10 µM, compound concentration 10 uM
HEK-293T = assay: Incucyte cell viability with HEK293T; conditions: human, 10 µM, compound concentration 10 uM
Note: unitless GR value; below 1 slowed growth and below 0 cell loss.

## O=C1NC(NC23CC4CC(CC(C4)C2)C3)=N/C1=C\c1ccc2ncsc2c1
Fibroblast; 0 h, replicate number 1
  Growth Rate: 0.57
Fibroblast; 0 h, replicate number 2
  Growth Rate: 0.76
Fibroblast; 6 h, replicate number 1
  Growth Rate: -1
U2OS; 0 h, replicate number 1
  Growth Rate: 0.86
U2OS; 0 h, replicate number 2
  Growth Rate: -0.34
U2OS; 18 h, replicate number 2
  Growth Rate: 0.87
U2OS; 24 h, replicate number 1
  Growth Rate: 0.82
U2OS; 24 h, replicate number 2
  Growth Rate: 0.52
HEK-293T; 0 h, replicate number 1
  Growth Rate: -0.45
HEK-293T; 0 h, replicate number 2
  Growth Rate: -0.26
HEK-293T; 12 h, replicate number 1
  Growth Rate: 0.28
HEK-293T; 12 h, replicate number 2
  Growth Rate: 0.34
HEK-293T; 18 h, replicate number 1
  Growth Rate: 0.06
HEK-293T; 18 h, replicate number 2
  Growth Rate: 0.09
HEK-293T; 24 h, replicate number 1
  Growth Rate: 0.08
HEK-293T; 24 h, replicate number 2
  Growth Rate: 0.05

## C[C@@H]1CN(CC(=O)N2CC(C)(C)c3nc(CO)c(Cc4ccc(F)cc4)cc32)[C@@H](CN2CCOC[C@H]2C)CN1 [ASTX-660]
Fibroblast; 0 h, replicate number 2
  Growth Rate: 0.14
U2OS; 24 h, replicate number 1
  Growth Rate: 0.98
HEK-293T; 0 h, replicate number 1
  Growth Rate: 0.18
HEK-293T; 18 h, replicate number 1
  Growth Rate: 0.97
HEK-293T; 24 h, replicate number 1
  Growth Rate: 0.89

## CC(C)n1cc(-c2ccc(N3CCN(C)CC3)c(NC(=O)c3ccc(-c4ccncc4)o3)c2)cn1
Fibroblast; 0 h, replicate number 2
  Growth Rate: -0.35
Fibroblast; 6 h, replicate number 1
  Growth Rate: -0.97
Fibroblast; 6 h, replicate number 2
  Growth Rate: 0.11
Fibroblast; 12 h, replicate number 2
  Growth Rate: 0.45
Fibroblast; 18 h, replicate number 2
  Growth Rate: 0.67
Fibroblast; 24 h, replicate number 2
  Growth Rate: 0.65
U2OS; 0 h, replicate number 1
  Growth Rate: -0.65
U2OS; 0 h, replicate number 2
  Growth Rate: -0.8
U2OS; 12 h, replicate number 1
  Growth Rate: 0.96
HEK-293T; 6 h, replicate number 1
  Growth Rate: -0.65
HEK-293T; 6 h, replicate number 2
  Growth Rate: -0.31
HEK-293T; 12 h, replicate number 1
  Growth Rate: -0.36
HEK-293T; 12 h, replicate number 2
  Growth Rate: -0.01
HEK-293T; 18 h, replicate number 1
  Growth Rate: -0.19
HEK-293T; 18 h, replicate number 2
  Growth Rate: 0.15
HEK-293T; 24 h, replicate number 1
  Growth Rate: -0.08
HEK-293T; 24 h, replicate number 2
  Growth Rate: 0.31

## N#Cc1cccc(-c2c[nH]c3ncnc(N4CCOCC4)c23)c1
Fibroblast; 0 h, replicate number 1
  Growth Rate: -0.42
Fibroblast; 0 h, replicate number 2
  Growth Rate: -0.76
U2OS; 6 h, replicate number 1
  Growth Rate: 0.91
U2OS; 12 h, replicate number 1
  Growth Rate: 0.88
U2OS; 18 h, replicate number 1
  Growth Rate: 0.31
U2OS; 18 h, replicate number 2
  Growth Rate: 0.94
U2OS; 24 h, replicate number 1
  Growth Rate: 0.97
U2OS; 24 h, replicate number 2
  Growth Rate: 0.98
HEK-293T; 0 h, replicate number 1
  Growth Rate: -0.86

## CC(C)(C)c1ccc(NC(=O)N2CCN(c3ncccc3Cl)CC2)cc1
Fibroblast; 0 h, replicate number 2
  Growth Rate: -0.81
Fibroblast; 6 h, replicate number 1
  Growth Rate: 0.2
Fibroblast; 18 h, replicate number 1
  Growth Rate: 0.84
Fibroblast; 24 h, replicate number 2
  Growth Rate: 0.87
U2OS; 12 h, replicate number 1
  Growth Rate: 0.89
U2OS; 18 h, replicate number 1
  Growth Rate: 0.88
U2OS; 24 h, replicate number 1
  Growth Rate: 0.99
HEK-293T; 6 h, replicate number 1
  Growth Rate: -0.72
HEK-293T; 6 h, replicate number 2
  Growth Rate: -0.47
HEK-293T; 12 h, replicate number 1
  Growth Rate: -0.41
HEK-293T; 12 h, replicate number 2
  Growth Rate: 0.06
HEK-293T; 18 h, replicate number 1
  Growth Rate: -0.12
HEK-293T; 18 h, replicate number 2
  Growth Rate: 0.09
HEK-293T; 24 h, replicate number 1
  Growth Rate: -0.21
HEK-293T; 24 h, replicate number 2
  Growth Rate: 0.17

## O=C(NNC(=O)c1ccc(CNS(=O)(=O)c2ccc(F)c(Cl)c2)cc1)c1ccccc1
Fibroblast; 0 h, replicate number 1
  Growth Rate: -0.42
Fibroblast; 0 h, replicate number 2
  Growth Rate: -1
Fibroblast; 6 h, replicate number 2
  Growth Rate: -0.76
Fibroblast; 18 h, replicate number 1
  Growth Rate: 0.64
Fibroblast; 18 h, replicate number 2
  Growth Rate: 0.85
U2OS; 0 h, replicate number 1
  Growth Rate: 0.67
U2OS; 0 h, replicate number 2
  Growth Rate: 0.85
U2OS; 18 h, replicate number 1
  Growth Rate: 0.97
HEK-293T; 6 h, replicate number 1
  Growth Rate: 0.34
HEK-293T; 6 h, replicate number 2
  Growth Rate: 0.59
HEK-293T; 12 h, replicate number 1
  Growth Rate: 0.48
HEK-293T; 12 h, replicate number 2
  Growth Rate: 0.64
HEK-293T; 18 h, replicate number 1
  Growth Rate: 0.31
HEK-293T; 18 h, replicate number 2
  Growth Rate: 0.87
HEK-293T; 24 h, replicate number 1
  Growth Rate: 0.36
HEK-293T; 24 h, replicate number 2
  Growth Rate: 0.83

## CC1(C)CCN(C(=O)C2CN(c3c4c(nc5ccnn35)CCNCC4)C2)C1.O=C(O)C(F)(F)F
Fibroblast; 12 h, replicate number 2
  Growth Rate: 0.82
Fibroblast; 18 h, replicate number 2
  Growth Rate: 0.86
Fibroblast; 24 h, replicate number 1
  Growth Rate: 0.98
Fibroblast; 24 h, replicate number 2
  Growth Rate: 0.96
U2OS; 6 h, replicate number 1
  Growth Rate: 0.78
HEK-293T; 0 h, replicate number 2
  Growth Rate: 0.61
HEK-293T; 6 h, replicate number 1
  Growth Rate: -0.5
HEK-293T; 12 h, replicate number 1
  Growth Rate: 0.45
HEK-293T; 18 h, replicate number 1
  Growth Rate: 0.87
HEK-293T; 24 h, replicate number 1
  Growth Rate: 0.96

## Cn1ncc(NC(=O)c2nc(-c3c(F)cccc3F)sc2N)c1N1CC[C@@H](N)[C@H](F)CC1
Fibroblast; 0 h, replicate number 1
  Growth Rate: -1
U2OS; 0 h, replicate number 1
  Growth Rate: -1
U2OS; 24 h, replicate number 2
  Growth Rate: 0.96
HEK-293T; 0 h, replicate number 1
  Growth Rate: -1
HEK-293T; 0 h, replicate number 2
  Growth Rate: -0.31
HEK-293T; 24 h, replicate number 2
  Growth Rate: 0.77

## COc1ccc(-n2c(C)c([N+](=O)[O-])c3ccc(O)cc32)cc1
Fibroblast; 0 h, replicate number 2
  Growth Rate: 0.13
Fibroblast; 18 h, replicate number 1
  Growth Rate: -0.35
U2OS; 12 h, replicate number 2
  Growth Rate: 0.65
U2OS; 18 h, replicate number 1
  Growth Rate: 0.88
U2OS; 18 h, replicate number 2
  Growth Rate: 0.61
U2OS; 24 h, replicate number 1
  Growth Rate: 0.91
U2OS; 24 h, replicate number 2
  Growth Rate: 0.77
HEK-293T; 0 h, replicate number 1
  Growth Rate: 0.26
HEK-293T; 0 h, replicate number 2
  Growth Rate: -0.46

## CC(C)(C)c1ccc2c(c1)CC[C@H]2NC(=O)Nc1cccc2[nH]ncc12 [ABT-102]
Fibroblast; 0 h, replicate number 1
  Growth Rate: 0.1
Fibroblast; 0 h, replicate number 2
  Growth Rate: 0.41
Fibroblast; 12 h, replicate number 1
  Growth Rate: -0.95
Fibroblast; 24 h, replicate number 1
  Growth Rate: 0.79
U2OS; 0 h, replicate number 2
  Growth Rate: -0.93
U2OS; 12 h, replicate number 2
  Growth Rate: 0.84
U2OS; 18 h, replicate number 2
  Growth Rate: 0.91
U2OS; 24 h, replicate number 2
  Growth Rate: 0.9
HEK-293T; 0 h, replicate number 2
  Growth Rate: 1
HEK-293T; 6 h, replicate number 1
  Growth Rate: 0.75
HEK-293T; 6 h, replicate number 2
  Growth Rate: 0.6
HEK-293T; 12 h, replicate number 1
  Growth Rate: 0.26
HEK-293T; 12 h, replicate number 2
  Growth Rate: 0.71
HEK-293T; 18 h, replicate number 1
  Growth Rate: 0.39
HEK-293T; 18 h, replicate number 2
  Growth Rate: 0.54
HEK-293T; 24 h, replicate number 1
  Growth Rate: 0.22
HEK-293T; 24 h, replicate number 2
  Growth Rate: 0.48

## O=C(NCCS(=O)(=O)c1ccc(C(F)(F)F)cn1)c1ccc(Cl)cc1
Fibroblast; 0 h, replicate number 2
  Growth Rate: -0.73
Fibroblast; 12 h, replicate number 1
  Growth Rate: 0.61
Fibroblast; 12 h, replicate number 2
  Growth Rate: 0.53
Fibroblast; 18 h, replicate number 1
  Growth Rate: 0.55
Fibroblast; 18 h, replicate number 2
  Growth Rate: 0.99
Fibroblast; 24 h, replicate number 1
  Growth Rate: 0.9
Fibroblast; 24 h, replicate number 2
  Growth Rate: 0.73
U2OS; 12 h, replicate number 1
  Growth Rate: 0.98
U2OS; 18 h, replicate number 1
  Growth Rate: 0.96
U2OS; 24 h, replicate number 1
  Growth Rate: 0.93
HEK-293T; 0 h, replicate number 1
  Growth Rate: -0.16
HEK-293T; 6 h, replicate number 2
  Growth Rate: 0.83
HEK-293T; 12 h, replicate number 2
  Growth Rate: 0.73
HEK-293T; 18 h, replicate number 2
  Growth Rate: 0.77
HEK-293T; 24 h, replicate number 2
  Growth Rate: 0.79

## COc1ccccc1S(=O)(=O)Nc1ccc2c(c1)CN(C)C(=O)N2
Fibroblast; 0 h, replicate number 2
  Growth Rate: 0.57
Fibroblast; 6 h, replicate number 1
  Growth Rate: 0.3
Fibroblast; 6 h, replicate number 2
  Growth Rate: -0.15
Fibroblast; 12 h, replicate number 1
  Growth Rate: 0.4
Fibroblast; 12 h, replicate number 2
  Growth Rate: 0.42
Fibroblast; 18 h, replicate number 1
  Growth Rate: 0.37
Fibroblast; 18 h, replicate number 2
  Growth Rate: 0.7
Fibroblast; 24 h, replicate number 1
  Growth Rate: 0.79
U2OS; 0 h, replicate number 1
  Growth Rate: -0.66
U2OS; 0 h, replicate number 2
  Growth Rate: -0.75
U2OS; 6 h, replicate number 1
  Growth Rate: 0.81
U2OS; 6 h, replicate number 2
  Growth Rate: 0.5
U2OS; 12 h, replicate number 1
  Growth Rate: 0.83
HEK-293T; 0 h, replicate number 1
  Growth Rate: 0.51
HEK-293T; 0 h, replicate number 2
  Growth Rate: -0.37
HEK-293T; 18 h, replicate number 2
  Growth Rate: 0.98
HEK-293T; 24 h, replicate number 2
  Growth Rate: 0.9

## COc1cc(C(N)=O)ccc1Nc1ncc2c(n1)N(CCC(C)C)[C@H](C)C(=O)N2C
Fibroblast; 0 h, replicate number 1
  Growth Rate: -0.99
Fibroblast; 0 h, replicate number 2
  Growth Rate: -0.68
Fibroblast; 24 h, replicate number 2
  Growth Rate: 0.77
U2OS; 0 h, replicate number 1
  Growth Rate: -1
U2OS; 6 h, replicate number 2
  Growth Rate: 0.39
U2OS; 12 h, replicate number 1
  Growth Rate: -0.71
U2OS; 12 h, replicate number 2
  Growth Rate: 0.18
U2OS; 18 h, replicate number 1
  Growth Rate: 0.37
U2OS; 18 h, replicate number 2
  Growth Rate: 0.4
U2OS; 24 h, replicate number 1
  Growth Rate: -0.55
U2OS; 24 h, replicate number 2
  Growth Rate: 0.27
HEK-293T; 0 h, replicate number 1
  Growth Rate: -0.98
HEK-293T; 0 h, replicate number 2
  Growth Rate: -1
HEK-293T; 24 h, replicate number 1
  Growth Rate: 0.53

## CC(Sc1nc2c(cnn2-c2cccc(Cl)c2)c(=O)[nH]1)C(N)=O (centres undefined)
Fibroblast; 0 h, replicate number 2
  Growth Rate: -1
Fibroblast; 6 h, replicate number 1
  Growth Rate: 0.44
Fibroblast; 18 h, replicate number 1
  Growth Rate: 0.53
U2OS; 6 h, replicate number 1
  Growth Rate: -0.28
U2OS; 6 h, replicate number 2
  Growth Rate: 0.38
U2OS; 12 h, replicate number 1
  Growth Rate: 0.5
U2OS; 12 h, replicate number 2
  Growth Rate: 0.69
U2OS; 18 h, replicate number 1
  Growth Rate: 0.85
U2OS; 18 h, replicate number 2
  Growth Rate: 0.68
U2OS; 24 h, replicate number 1
  Growth Rate: 0.84
U2OS; 24 h, replicate number 2
  Growth Rate: 0.85
HEK-293T; 0 h, replicate number 1
  Growth Rate: 1
HEK-293T; 0 h, replicate number 2
  Growth Rate: 0.66

Reference: ChEMBL document CHEMBL5303304, “EUbOPEN Chemogenomics Library - IncuCyte” (2023)
